{
  "source": "patent EP0104596A2",
  "about": "“Furoindole derivatives” (TAISHO PHARMACEUTICAL CO. LTD, priority 1982, dated 1984)",
  "format_in_all_cases": "in vivo",
  "key": {"[1]": {"test_system": "male rats of Wistar strain", "assay": "Acute oral toxicity (lethality) in rats", "details": "10 male Wistar rats"}, "male ddY mice [2]": {"test_system": "male ddY mice", "assay": "Acetic acid writhing method (analgesic effect)", "details": "Mus musculus, po, 30 minutes before i.p. 0.7 % acetic acid, writhes counted 10 to 20 minutes after injection, read-out: Analgesic action (ED50) Acetic acid writhing method", "description": "(1) Acetic Acid Writhing Method [Koster, Anderson and De Beer: Fed. Proc., 18, 412(1959)]\n10 male ddY mice weighing 19 - 23 g were used in testing each compound. The test compounds were administered orally 30 minutes before in the intraperitoneal injection (0.1 ml/ 10 g ) of 0.7 % acetic acid. The number of writhes were counted in each mouse during a period spanning 10 to 20 minutes after the acetic acid injection.\nThe percent inhibition was calculated as compared with the number of writhes in the control group, and the ED50 values were calculated from the inhibitory percent."}, "male ddY mice [3]": {"test_system": "male ddY mice", "assay": "Tail pressure method (analgesic effect)", "details": "Mus musculus, po, pain threshold raised more than 50 % = positive, measured every 30 minutes for 120 minutes, read-out: Analgesic action (ED50) Tail pressure method", "description": "(2) Tail Pressure Method [Takagi and Kameyama: Yakugaku Zasshi, 78, 553(1958)]\n10 male ddY mice weighing 20 - 25 g were used in testing each compound. The pressure stimulus was applied to the base of the mouse tail. The test compounds were administered orally and the pain threshold was measured every 30 minutes for 120 minutes.\nAnimals of which post-drug pain threshold raised more than 50 % as compared with its pre-drug threshold were regarded as positive for the analgesic activity, and the ED50 values were calculated from the positive percent."}, "male Wistar rats": {"test_system": "male Wistar rats", "assay": "Randall & Selitto method (analgesic effect, brewer's yeast inflamed paw)", "details": "Rattus norvegicus, po, 2 hours after subplantar 20 % brewer's yeast, pain threshold every 1 hour for 4 hours, read-out: Analgesic action (ED50) Randall & Selitto method", "description": "(3) Randall & Selitto Method [Randall and Selitto: Arch. Int. Pharmacodyn. 111, 409(1957)]\n6 male Wistar rats weighing 90 - 110 g were used in testing each compound. The pain threshold was measured with an analgesic meter (Ugo Basile). The test compounds were adminstered orally 2 hours after the subplantar injection(0.1 ml/rat) of 20 % brewer's yeast suspension into the right hind paw, and the pain threshold was measured every 1 hour for 4 hours.\nAnimals of which post-drug pain threshold raised more than 50 % as compared with the threshold in control group were regarded as positive for the analgesic activity, and the ED50 values were calculated from the positive percent."}, "male S.D. rats": {"test_system": "male S.D. rats", "assay": "Adjuvant-induced arthritic pain (analgesic effect)", "details": "Rattus norvegicus, po, Mycobacterium butyricum polyarthritis, pain response every 1 hour for 5 hours, read-out: Analgesic action (ED50) Adjuvant-induced arthritic pain method", "description": "(4) Adjuvant-induced Arthritic Pain [Kuzuna and Kawai: Chem. Pha^rm. Bull., ^23, 1184(1975)]\n6 male S.D. rats weighing 160 - 200 g were used in testing each compound. Polyarthritis was induced by the intradermal injection (0.1 ml/rat) of 0.5 % Mycobacterium butyricum suspension into the distal portion of the tail. The pain stimulus was applied by a gentle flection of the right tarso-tibial joints repeatedly 5 times at intervals 4 to 5 seconds, the vocalization following the pain stimulus was regarded as pain response."}},
  "data": [
    {"molecule": "CCCCC(CC)C(=O)n1c2cc(C(F)(F)F)ccc2c2oc(C(=O)N3CCOCC3)cc21", "note": "(stereo not shown) [Example 1, 4-(2-ethylhexanoyl)-2-morpholinocarbonyl-6-trifluoromethyl-furo-[3,2-b]-indole]", "values": [
      {"measurement": "death", "setting": "[1]; 1000 mg/kg orally", "result": "no death was observed"}
    ]},
    {"molecule": "CC(C)OC(=O)n1c2cc(C(F)(F)F)ccc2c2oc(C(=O)N3CCOCC3)cc21", "note": "[Example 2, 4-isopropoxycarbonyl-2-morpholinocarbonyl-6-trifluoromethyl-furo-[3,2-b]indole]", "values": [
      {"measurement": "death", "setting": "[1]; 1000 mg/kg orally", "result": "no death was observed"}
    ]},
    {"molecule": "CC(C)CC(=O)n1c2cc(C(F)(F)F)ccc2c2oc(C(=O)N3CCOCC3)cc21", "note": "[Example 3, 4-isobutylcarbonyl-2-morpholinocarbonyl-6-trifluoromethyl-furo[3,2-b]indole]", "values": [
      {"measurement": "death", "setting": "[1]; 2000 mg/kg orally", "result": "no death was observed"}
    ]},
    {"molecule": "O=C(c1cc2[nH]c3cc(C(F)(F)F)ccc3c2o1)N1CCOCC1", "note": "[R: -H, 2-morpholinocarbonyl-6-trifluoromethyl-4H-furo[3,2-b]indole]", "values": [
      {"measurement": "ED50", "setting": "male ddY mice [2]", "result": "> 100", "unit": "mg/kg"},
      {"measurement": "ED50", "setting": "male ddY mice [3]", "result": "> 100", "unit": "mg/kg"},
      {"measurement": "ED50", "setting": "male Wistar rats", "result": "> 100", "unit": "mg/kg"},
      {"measurement": "ED50", "setting": "male S.D. rats", "result": "> 100", "unit": "mg/kg"}
    ]}
  ]
}
